Results from patent publication US20230053437A1, “LIPID COMPOUNDS AND LIPID NANOPARTICLE COMPOSITIONS” (Suzhou Abogen Biosciences Co., Ltd., priority 2020, published 2023).

How the values were obtained:
Format in all cases: physicochemical
[1] = Lipid nanoparticle size by dynamic light scattering (Malvern Zetasizer Nano ZS); details: LNP: cationic lipid/DSPC/cholesterol/PEG-lipid 50:10:38.5:1.5 with hEPO mRNA
Procedure: (§1) Briefly, a cationic lipid provided herein, DSPC, cholesterol, and PEG-lipid were solubilized in ethanol at a molar ratio of 50:10:38.5:1.5, and mRNA were diluted in 10 to 50 mM citrate buffer, pH=4. The LNPs were prepared at a total lipid to mRNA weight ratio of approximately 10:1 to 30:1 by mixing the ethanolic lipid solution with the aqueous mRNA solution at a volume ratio of 1:3 using a microfluidic apparatus, total flow rate ranging from 9-30 mL/min. Ethanol were thereby removed and replaced by DPBS using dialysis. Finally, the lipid nanoparticles were filtered through a […] sterile filter.
(§2) Lipid nanoparticle size were determined by dynamic light scattering using a Malvern Zetasizer Nano ZS (Malvern UK) using a 173° backscatter detection mode. The encapsulation efficiency of lipid nanoparticles were determined using a Quant-it Ribogreen RNA quantification assay kit (Thermo Fisher Scientific, UK) according to the manufacturer's instructions.

[2] = Encapsulation efficiency of lipid nanoparticles, Quant-it Ribogreen RNA quantification assay; details: LNP with hEPO mRNA
Procedure: as §1, §2

[3] = Apparent pKa of LNP formulations, TNS fluorescence assay; details: LNP cationic lipid/DSPC/cholesterol/DMG-PEG 50/10/38.5/1.5 mol %, pH 3 to 9
Procedure: As reported in literature, the apparent pKa of LNP formulations correlates with the delivery efficiency of LNPs for nucleic acids in vivo. The apparent pKa of each formulation was determined using an assay based on fluorescence of 2-(p-toluidino)-6-napthalene sulfonic acid (TNS). LNP formulations comprising of cationic lipid/DSPC/cholesterol/DMG-PEG (50/10/38.5/1.5 mol %) in PBS were prepared as described above. TNS was prepared as a 300 uM stock solution in distilled water. LNP formulations were diluted to 0.1 mg/ml total lipid in 3 mL of buffered solutions containing 50 mM sodium citrate, 50 mM sodium phosphate, 50 mM sodium borate, and 30 mM sodium chloride where the pH ranged from 3 to 9. An aliquot of the TNS solution was added to give a final concentration of 0.1 mg/ml and following vortex mixing fluorescence intensity was measured at room temperature in a Molecular Devices Spectramax iD3 spectrometer using excitation and mission wavelengths of 325 nm and 435 nm. A sigmoidal best fit analysis was applied to the fluorescence data and the pKa value was measured as the pH giving rise to half-maximal fluorescent intensity.

SMILES	polydispersity [1]	size (nm) [1]	Encapsulation Efficiency [2]	Apparant Pka [3]
CCCCCCCCCCCC(=O)OCC1(COC(=O)CCCCCCCCCCC)CCN(C(=O)CCN(C)CCCn2cnc3c(N)ncnc32)CC1 [Compound 15]	0.153	63.65 nm	94.2%	6.65
CCCCCCCCCCCC(=O)OCC1(COC(=O)CCCCCCCCCCC)CCN(C(=O)CCN(CCCCCC)CCCNc2c(N(C)C)c(=O)c2=O)CC1 [Compound 49]	0.291	87.3 nm	95.8%	4.76
CCCCCCCCCCCC(=O)OCC1(COC(=O)CCCCCCCCCCC)CCN(C(=O)CCN(C)CCCn2ccc(N)nc2=O)CC1 [Compound 14]	0.092	67.29 nm	92.5%	8.22
CCCCCCCCCCCC(=O)OCC1(COC(=O)CCCCCCCCCCC)CCN(C(=O)CCN(C)CCCNc2c(N(C)C)c(=O)c2=O)CC1 [Compound 12]	0.23	98.67 nm	95.8%	7.45
CCCCCCCCCCCC(=O)OCC1(COC(=O)CCCCCCCCCCC)CCN(C(=O)CCN(CCCCCC)CCCCCC)CC1 [Compound 31]	0.136	67.72 nm	92.7%	6.39
CCCCCCCCCCCC(=O)OCC1(COC(=O)CCCCCCCCCCC)CCN(C(=O)CCN2CCCCC2)CC1 [Compound 6]	0.064	100 nm	89.2%	6.85
CCCCCCCCCCCC(=O)OCC1(COC(=O)CCCCCCCCCCC)CCN(C(C)CO)CC1 (stereo not drawn) [Compound 17]	0.159	54.04 nm	96.6%	7.68
CCCCCCCCC(CCCCCC)COC(=O)CCCCCC(=O)OCC1(COC(=O)CCCCCC(=O)OCC(CCCCCC)CCCCCCCC)CCN(C(=O)CCN2CCCC2)CC1 (stereo not drawn) [Compound 53]	0.316	94.1 nm	102.1%	8.09
CCCCCCCCCCCC(=O)OCC1(COC(=O)CCCCCCCCCCC)CCN(C(=O)CCCN(C)C)CC1 [Compound 38]	0.104	73.39 nm	93.5%	7.85
CCCCCCCCC(CCCCCC)COC(=O)CCCCCC(=O)OCC1(COC(=O)CCCCCC(=O)OCC(CCCCCC)CCCCCCCC)CCN(C(=O)CCN2CCOCC2)CC1 (stereo not drawn) [Compound 55]	0.247	81.29 nm	80.6%	7.25
CCCCCCCCCCCC(=O)OCC1(COC(=O)CCCCCCCCCCC)CCN(C(=O)CCN(CCC)CCC)CC1 [Compound 28]	0.142	116.2 nm	79.2%	
CCCCCCCCCCCC(=O)OCC1(COC(=O)CCCCCCCCCCC)CCN(C(=O)CCCN2CCOCC2)CC1 [Compound 43]	0.214	89.71 nm	69.9%	6.83
CCCCCCCCC(CCCCCC)COC(=O)CCCCCC(=O)OCC1(COC(=O)CCCCCC(=O)OCC(CCCCCC)CCCCCCCC)CCN(C(=O)CCN2CCCCCC2)CC1 (stereo not drawn) [Compound 54]	0.168	84.09 nm	99.7%	8.31
CCCCCCCCCCCC(=O)OCC1(COC(=O)CCCCCCCCCCC)CCN(C(=O)CCCN(CCO)CCCC)CC1 [Compound 37]	0.386	95.98 nm	94.9%	6.04
CCCCCCCCC(CCCCCC)COC(=O)CCCCCC(=O)OCC1(COC(=O)CCCCCC(=O)OCC(CCCCCC)CCCCCCCC)CCN(C(=O)CCCN2CCCC2)CC1 (stereo not drawn) [Compound 58]	0.356	97.85 nm	102.4%	13.72
CCCCCCCCC(CCCCCC)COC(=O)CCCCCC(=O)OCC1(COC(=O)CCCCCC(=O)OCC(CCCCCC)CCCCCCCC)CCN(C(=O)CCN(CC)CCO)CC1 (stereo not drawn) [Compound 57]	0.276	74.16 nm	100.4%	8.80

SMILES	polydispersity [1]	size (nm) [1]	Encapsulation Efficiency [2]	Apparant Pka [3]
CCCCCCCCCCCC(=O)OCC1(COC(=O)CCCCCCCCCCC)CCN(CCCCCCO)CC1 [Compound 21]	0.198	127.8 nm	73.2%	6.71
CCCCCCCCC(CCCCCC)COC(=O)CCCCCC(=O)OCC1(COC(=O)CCCCCC(=O)OCC(CCCCCC)CCCCCCCC)CCN(C(=O)CCCN2CCCCC2)CC1 (stereo not drawn) [Compound 59]	0.378	109.8 nm	102.1%	11.77
CCCCCCCCCCCC(=O)OCC1(COC(=O)CCCCCCCCCCC)CCN(C(=O)CCN(C)CCO)CC1 [Compound 2]	0.079	80.24 nm	92.5%	7.29
CCCCCCCCC(CCCCCC)COC(=O)CCCCCC(=O)OCC1(COC(=O)CCCCCC(=O)OCC(CCCCCC)CCCCCCCC)CCN(C(=O)CCCN2CCOCC2)CC1 (stereo not drawn) [Compound 60]	0.048	90.17 nm	91.7%	7.44
CCCCCCCCCCCC(=O)OCC1(COC(=O)CCCCCCCCCCC)CCN(C(=O)CCN2CCCCCC2)CC1 [Compound 7]	0.101	68 nm	98.2%	9.02
CCCCCCCCCCCC(=O)OCC1(COC(=O)CCCCCCCCCCC)CCN(C(=O)CCN(CCCC)CCCC)CC1 [Compound 30]	0.056	92.03 nm	80.1%	6.77
CCCCCCCCCOC(=O)CCC1(CCC(=O)OCCCCCCCCC)CCN(C(=O)CCN(C)C)CC1 [Compound 63]	0.113	82.74 nm	97.4%	7.859
CCCCCCCCCCCC(=O)OCC1(COC(=O)CCCCCCCCCCC)CCN(C(=O)CCN(CCO)CCO)CC1 [Compound 4]	0.199	64.29 nm	92.8%	7.18
CCCCCCCCCCCC(=O)OCC1(COC(=O)CCCCCCCCCCC)CCN(CCCO)CC1 [Compound 18]	0.212	105.9 nm	94.0%	7.17
CCCCC/C=C\C/C=C\CCCCCCCC(=O)OCC1(COC(=O)CCCCCCC/C=C\C/C=C\CCCCC)CCN(C(=O)CCN2CCCC2)CC1 [Compound 50]	0.327	86.44 nm	97.8%	10.76
CCCCCCCCCCCC(=O)OCC1(COC(=O)CCCCCCCCCCC)CCN(C(=O)CCN(CCO)CCCCC)CC1 [Compound 25]	0.153	69.62 nm	89.3%	7.98
CCCCCCCCCCCC(=O)OCC1(COC(=O)CCCCCCCCCCC)CCN(CCCCO)CC1 [Compound 19]	0.137	66.82 nm	94.5%	7.93
CCCCCCCCCCCC(=O)OCC1(COC(=O)CCCCCCCCCCC)CCN(C(=O)CCN(CC)CC)CC1 [Compound 27]	0.11	71.72 nm	93.6%	8.27
CCCCCCCCCCCC(=O)OCC1(COC(=O)CCCCCCCCCCC)CCN(C(=O)CCCN(CC)CCO)CC1 [Compound 35]	0.261	89.42 nm	96.0%	8.02
CCCCCCCCCCCC(=O)OCC1(COC(=O)CCCCCCCCCCC)CCN(C(=O)CCN(C)C)CC1 [Compound 9]	0.08	70.22 nm	95.5%	
CCCCCCCCCCCC(=O)OCC1(COC(=O)CCCCCCCCCCC)CCN(C(=O)CCN(CCCCC)CCCNc2c(N(C)C)c(=O)c2=O)CC1 [Compound 48]	0.133	85.67 nm	98.3%	7.17
